Source: patent publication US20020151487A1, “Method and reagents for epithelial barrier formation and treatment of malignant and benign skin disorders by modulating the notch pathway” (Loyola University Chicago, priority 2000, published 2002)

Key:
Cytotoxicity = format: cell-based; conditions: concentrations <300 nM
MOM-2b cells = assay: Invasion through MATRIOEL coated filters; format: cell-based; conditions: MOM-2b cells pretreated overnight with 100 nM
Method: In a second experiment, MOM-2b cells were pretreated overnight with 100 nM compound E or untreated culture medium and then analyzed for invasive behavior by culturing them on MATRIOEL™ coated filters, into which aggressive melanoma will invade. After 20 hours, cells that have not invaded through the filters were discarded and cells that had migrated into the top of the filters were stained, lysed, and then assayed for absorbance at 350 nm to quantitate the number of cells that had invaded through the filter.

Notch-1 = assay: Western blotting for Notch-1 in MOM-2b cells; format: cell-based; conditions: 100 nM
Method: Two cultures of MOM-2b cells (an aggressive melanoma cell line) were cultured in standard medium alone or in the presence of 100 nM of a gamma secretase inhibitor, which interferes with Notch signaling (Supont Compound E; Seiffaert et al., J. Biol. Chem., 275, 34086 (2000)). The cells then were lysed and assayed for the presence of Notch-1 by Western blotting.

NF-κB [1] = assay: Electromobility shift assay (EMSA) of keratinocyte nuclear extracts; format: cell-based, human; conditions: heterodimers p50 and p65 and p50/p50 homodimers
Method: EMSA were done as described previously (Qin et al., supra). 5 μg of nuclear proteins were incubated on ice with 1 μg of poly(dI-dC) (Amersham Pharmacia Biotech) in a buffer containing 10 mM HEPES, 60 mM KCl, 1 mM dithiothreitol, 1 mM EDTA, and 4% Ficoll for 10 min. The ^32P-labeled double strand NF-κB binding oligonucleotide (10^5 cpm) was then added to the reaction mixture for an additional 20 min on ice. The NF-κB oligonucleotide had the following sequence: SEQ ID NO:14 (5′-[…]-3′). For experiments involving supershift analysis, 2-4 μg of polyclonal antibodies against different subunits of NF-κB (Santa Cruz Biotech) were incubated with nuclear proteins for 30 min on ice prior to addition of ^32P-labeled NF-κB probe. All the reaction mixtures were resolved on 4% polyacrylamide gels.

epidermal equivalents = assay: Living epidermal equivalent model system; format: cell-based, human; conditions: for terminal differentiation and cornification: continuously submerged cultures, 4 days later
Method: Reconstituted epidermis, known as epidermal equivalents were purchased from MatTek Corp., Ashland, Mass.
(§1) Portions of the epidermal equivalents were fixed in 10% neutral buffered formalin, embedded in paraffin and routinely stained with 1% hematoxylin and eosin. […] When using Lab Tek cultures, these slides were rinsed in PBS and fixed with ice-chilled acetone for 10 mins prior to addition of primary antibodies. Cryostat sections of skin also were fixed using ice-cold acetone. In all cases, a highly sensitive avidin biotin peroxidase procedure (Vectastain Kit, Vector Labs, Burlingame, Calif.) was used with a positive red reaction product obtained using […] as the chromagen.
For these experiments a living epidermal equivalent model system was used, because it provided an opportunity to examine the individual components of the Notch pathway (i.e. Notch ligand and receptors) before, and after, induction of differentiation for keratinocytes maintained in a multi-layered or stratified configuration that closely resembles normal human skin. Epidermal equivalents consist of keratinocytes grown to produce a multi-layered structure that are initially prepared using submerged keratinocytes. Following this initial preparation, the cultures are exposed to an air-liquid interface in a moistened chamber for three days that can initiate the early stage of differentiation, designated as day 0. Under these conditions, approximately 5-7 layers are produced with a progressive flattening of the top level keratinocytes, which can include occasional cells with keratohyalin granules, and focal appearance of loricrin positive cells and corneocytes. When cultures arrived at day 0, they can either be re-submerged in medium or lifted-up and maintained on a support to create an air-liquid interface within a tissue culture well. After lifting of the cultures, the multi-layered keratinocytes are exposed to the air, with the subjacent membrane being moistened and fed only from the underlying medium within the well. Lifting the cultures at day 0, triggers the terminal differentiation process, which typically is completed within about 5 to about 7 days.

keratinocytes = assay: Terminal differentiation of cultured keratinocyte monolayers; format: cell-based, human; conditions: for loricrin and involucrin immunostaining: 2 mM calcium keratinocyte cultures; for stratification of keratinocyte monolayer: 2 mM calcium, as early as 3 days following addition
Method: (§2) Keratinocyte cultures were initiated from discarded neonatal foreskins, in which epidermis was separated from dermis using dispase (Mukherjee et al, Chemical and Structural Approaches to Rational Drug Design (Weiner et al., eds.) CRC Press, pp. 237-61 (Boca Raton, 1994). Keratinocytes were induced to proliferating using a low calcium (0.07 mM), serum-free medium (KGM, Clonetics Corp., San Diego, Calif.). Keratinocytes were grown in 10 cm plastic petri dishes, and passaged at 60-70% confluency, and maintained in a humidified incubator at 37° C. with 5% CO2. Keratinocytes were also grown in 8-well Lab Tek Chambers as previously described (Mukherjee et al., supra). Keratinocytes were used between 2 and 4 passages. In some experiments, keratinocytes were pre-treated with KGM containing an elevated calcium ion concentration (i.e. 2 mM) for 24 hrs prior to addition of JAG-1 peptide, or other stimuli as indicated.
as §1

NF-κB [2] = assay: NF-κB luciferase assay in transfected keratinocytes; format: cell-based, human
Method: as §2
To perform the luciferase-based NF-κB assays, normal keratinocytes were seeded in 6-well plates as previously described (Qin et al., supra). At approximately 50% to 60% confluence, the cells were co-transfected with 0.8 μg of pNF-κB-LUC vector (CLONTECH Laboratories, Palo Alto, Calif.) containing a firefly luciferase gene with K enhancer and 0.2 μg of PRL-TK plasmid DNA which contains Renella Luciferase gene to normalize the transfection efficiency. The same amount of control vector in which the κ enhancer was removed from pNF-κB-LUC was also used to co-transfect the cells.
DNA was transfected into keratinocytes using Fu-Gene 6 Transfection Reagent (Roche Molecular Biochemicals) according to the manufacturer's protocol. After 36 hours of transfection, cells were treated with either TNF-α (10^3 U/ml; R&D Systems, Minneapolis, Minn.) or the indicated peptides.
The preparation of cell lysate and luciferase activity measurements were made with DUAL LUCIFERASE™ Reporter Assay System (Promega, Madison Wis.) according to the manufacturer's instructions. The sample was placed in a TD-20/20 luminometer (CLONTECH Laboratories) for detection of light intensity.

PKC-alpha = PKC-alpha localization in keratinocytes; format: cell-based, human
Method: as §1

Notch 1 = assay: Western blot for Notch 1 in keratinocytes; format: cell-based, human; conditions: 6 hours and 24 hours after addition
Method: (§3) Whole cell lysates, or nuclear and cytoplasmic extracts, were prepared to detect different proteins as previously described (Chaturvedi et al., J. Biol. Chem., 274, 2358-67 (1999)). Briefly, keratinocytes were washed with ice cold phosphate buffered saline (PBS), and harvested by scraping the monolayers into 1 ml PBS, and pelleted in a […] microcentrifuge tube. The cell pellet was suspended in 400 μl of buffer A (10 mM HEPES, 10 mM KCl, 1 mM EDTA, 1 mM EGTA, 1 mM dithiothreitol, 0.5 mM phenylmethlysulfonyl fluoride, and 5 μg/ml leupeptin). After 20 min incubation on ice, 25 μl of 10% Nonidet P-40 was added and then centrifuged briefly. The supernatant represented the cytoplasmic extracts. The nuclear pellet was resuspended in 60-80 μl of buffer C (20 mM HEPES, 0.4 M NaCl, 1 mM EDTA, 1 mM EGTA, 1 mM dithiothreitol, 0.5 mM phenylmethylsulfonyl fluoride, and 5 μg/ml leupeptin) and incubated at 4° C. with shaking for 15 min. The nuclear debris was removed by centrifugation at 4° C.
(§4) For the whole cell lysate, cells were washed with cold PBS and incubated in CHAPS buffer on ice for 15 min. After centrifugation at 4° C., the supernatants were saved as whole cell lysate. The protein concentration of each sample was determined with Bio-Rad protein assay reagent. […]

[3] = tested on: Jagged-1 and Notch receptors; assay: Immunostaining of cultured keratinocyte monolayers for Jagged-1 and Notch receptors; format: cell-based, human
Method: as §2, §1

IκBα = assay: Western blot of keratinocyte cytoplasmic extracts for IκB proteins; format: cell-based, human
Method: as §3
For the whole cell lysate, cells were washed with cold PBS and incubated in CHAPS buffer on ice for 15 min. After centrifugation at 4° C., the supernatants were saved as whole cell lysate. The protein concentration of each sample was determined with Bio-Rad protein assay reagent. 30 μg of protein were loaded on 8-12.5% SDS-polyacrylamide gel, transferred to Immobilon-P (polyvinylidene difluoride) membrane and blocked in 5% powdered milk in TBST (50 mM Tris, pH 7.5, 150 mM NaCl, 0.01% Tween 20). The membrane was incubated with primary antibody overnight at 4° C. in 2.5% powdered milk in TBST and then was washed extensively with TBST, and incubated with 1:1500 anti-rabbit or mouse-HRP (Amersham Pharmacia Biotech). Proteins were visualized with the ECL detection kit (Amersham Pharmacia Biotech). The equivalent loading of proteins in each well was confirmed by Ponceau staining.

p50 and p65 subunits = assay: Western blot of keratinocyte nuclei for NF-κB subunits; format: cell-based, human; conditions: keratinocytes in 2 mM calcium; 30 minutes and 1 hour after addition
Method: as §3, §4

IKKα = IKKα immunocomplex kinase assay; format: cell-based, human; conditions: for kinase activity of IKKα: substrate GST-IκBα (1-54), after 30 and 60 minutes
Method: For immunoprecipitation 2 μg of anti-IKKα and anti-IKKβ were added to the whole cell lysate for 2 hours on ice. 30 μl of protein A-G sepharose beads were added and incubated at […] for 90 minutes. Beads were washed 3 times in wash buffer, and the beads were boiled with 2xSDS sample buffer. Kinase activity was performed using GST-IκBα as substrate (Hu et al., Science, 284, 316-20 (1999)).

[4] = re-submerged day 0 cultures, observed on day 5

## C[C@H](NC(=O)Cc1cc(F)cc(F)c1)C(=O)N[C@H]1N=C(c2ccccc2)c2ccccc2N(C)C1=O [compound E]
Cytotoxicity
  cytotoxicity: did not exhibit cytotoxicity
MOM-2b cells; after 20 hours
  OD350 (cells invaded through the filter): 0.378
MOM-2b cells; versus control culture
  inhibition of aggressive behavior in melanoma cells: 75%
Notch-1
  activation of Notch-1: completely blocked

## JAG-1: synthetic peptide with Notch agonist activity corresponding to Jagged-1 residues 188-204 (SEQ ID NO:11), part of the DSL region (CDDYYYGFGCNKFCRPR; JAG-1 Notch ligand)
NF-κB [1]
  NF-κB transcriptional activity (binding to NF-κB probe): can activate NF-κB transcriptional activity
Epidermal equivalents; 50 μM added on day 0
  terminal differentiation and cornification: triggered terminal differentiation and cornification
Epidermal equivalents; [4]
  apoptosis in submerged epidermal equivalent: reduced the apoptotic process
  loricrin expression in submerged epidermal equivalent: diffuse loricrin expression
  stratum corneum formation in submerged epidermal equivalent: thick stratum corneum layer
keratinocytes
  loricrin and involucrin immunostaining: strong induction
  stratification of keratinocyte monolayer: began piling-up to form 3-dimensional stratified clusters
NF-κB [2]; high calcium (2 mM) medium
  NF-κB activation (luciferase): did trigger NF-κB activation
NF-κB [2]; low calcium (0.07 mM) medium
  NF-κB activation (luciferase): not low calcium conditions
PKC-alpha; epidermal equivalents, upper layers of differentiated keratinocytes
  PKC-alpha localization: plasma membrane localization for PKC-alpha
PKC-alpha; keratinocyte monolayers
  PKC-alpha translocation (PKC activation): induced translocation of PKC-alpha from the cytoplasm to the plasma membrane
Notch 1
  Notch 1 levels: decreased to barely detectable levels
[3]; 24 hours after stimulation
  Notch-1 cellular localization: re-distributed to the cytoplasm
[3]; after addition of peptide
  Notch 3 immunolocalization: disappearance of both membrane and cytosolic Notch 3
[3]; after peptide stimulation
  Notch 4 immunolocalization: loss of membrane and cytosolic Notch 4
[3]; keratinocytes in 2 mM calcium, twenty-four hours after addition
  Jagged-1 cellular localization: loss of this plasma membrane staining
IκBα; 7-minute to 6-hour time points
  relatively low constitutive level of IκBα: slightly reduced
IκBα; after 24 hours
  cytoplasmic IκBα level (most prominent inhibitory protein): no consistent decline
  relatively low constitutive level of IκBα: became undetectable
p50 and p65 subunits
  intranuclear levels of p50 and p65 subunits: markedly enhanced intranuclear levels
IKKα; immediately following stimulation
  amount of IKKα present: not accompanied by any significant change
IKKα
  kinase activity of IKKα: did activate

## R-JAG: second peptide with agonist activity (SEQ ID NO:12) derived from the same region of Jagged-1, with specific amino acid changes (CDDYYYGFGCNKFGRPRDD; r-JAG1 Notch ligand)
Epidermal equivalents; 40 μM added on day 0
  terminal differentiation and cornification: triggered terminal differentiation and cornification
keratinocytes
  loricrin and involucrin immunostaining: strong induction
  stratification of keratinocyte monolayer: began piling-up to form 3-dimensional stratified clusters
IKKα
  kinase activity of IKKα: did activate

## SC-JAG: scrambled control peptide without agonist activity (SEQ ID NO:13) (RCGPDCFDNYGRYKYCF; Scrambled JAG peptide) [reference compound]
Epidermal equivalents; 40 μM added on day 0
  terminal differentiation and cornification: not
IKKα
  kinase activity of IKKα: little effect

## TNF-α [reference compound]
NF-κB [2]; high calcium (2 mM) medium
  NF-κB activation (luciferase): positive control for NF-κB activation
NF-κB [2]; low calcium (0.07 mM) medium
  NF-κB activation (luciferase): positive control for NF-κB activation
IKKα
  kinase activity of IKKα: little effect
